≈ marks a conversion by molar mass, not a printed value. Where “and” joins values, the source holds several entries; their conditions need not be identical. Equal values may be shown once. Where only a bound is given, the exact number is not on record here.

The text below walks through data of patent publication US4524135A.

Data set [1] deals with Streptococcus pyogenes C203. Description: Agar-dilution test.
Data set [2] has as its system Staphylococcus aureus ATCC 6738P. Description: Agar-plate disc-diffusion test. In kind it is cell-based. Particulars: 1 mg/ml suspension in water, 7-mm disc, 24-48 hours at 25-37° C.
Data set [3] has as its system Bacillus subtilis ATCC 6633. Description: Agar-plate disc-diffusion test. In kind it is cell-based. Particulars: 1 mg/ml suspension in water, 7-mm disc, 24-48 hours at 25-37° C.
Data set [4] relates to Streptococcus Group D X66. Description: Agar-dilution test.
The test system of data set [5] is Staphylococcus epidermidis EPI1. Particulars: agar dilution.
The next data set in a line: Toxicity in mice. Particulars: mouse, in vivo, iv, administered intravenously. An excerpt: | ^a Administered intravenously
Data set [6] concerns Micrococcus luteus ATCC 9341. Put plainly: Agar-plate disc-diffusion test. In kind it is cell-based. Particulars: 1 mg/ml suspension in water, 7-mm disc, 24-48 hours at 25-37° C.
For data set [7], the system named is Staphylococcus aureus V41. Description: Agar-dilution test. In kind it is cell-based. Particulars: penicillin-resistant strain.
Data set [8] concerns Staphylococcus aureus X400. Particulars: agar dilution; methicillin-resistant strain.
Another data set deals with Streptococcus pyogenes. Description: Experimental bacterial infection in mice. The data set is classed as in vivo. Particulars: two doses. An excerpt: (§1) The results of in vivo tests to evaluate the effectiveness of the derivatives against experimental bacterial infections in mice are given in Table III. […] 81, 233-235 (1961)].
Another data set relates to Staphylococcus aureus. Put plainly: Experimental bacterial infection in mice. Particulars: subcutaneous, two doses. In kind it is in vivo.
Text: as §1

For data set [9], the system named is Staphylococcus epidermidis EPI2. Description: Agar-dilution test.
In data set [10] the test system is Staphylococcus aureus X1.1. Put plainly: Agar-dilution test.
A further data set deals with Streptococcus Group 9960. Particulars: agar dilution.
The subject of data set [11] is Streptococcus pneumoniae Park I. Put plainly: Agar-dilution test. In kind it is cell-based.

`CCCCCCCCCC(=O)N[C@@H](Cc1c[nH]c2ccccc12)C(=O)N[C@@H](CC(N)=O)C(=O)N[C@@H](CC(=O)O)C(=O)N[C@@H]1C(=O)NCC(=O)N[C@@H](CCCN)C(=O)N[C@@H](CC(=O)O)C(=O)N[C@H](C)C(=O)N[C@@H](CC(=O)O)C(=O)NCC(=O)N[C@H](CO)C(=O)N[C@@H]([C@H](C)CC(=O)O)C(=O)N[C@@H](CC(=O)c2ccccc2N)C(=O)O[C@@H]1C` [Example 6]: the MIC in data set [1] was 0.25 µg/mL and 0.125 µg/mL; in [4], 16 µg/mL (≈ 9.87 µM); in data set [5], 2 µg/mL and 1 µg/mL; in data set [7], 1 µg/mL and 0.5 µg/mL; in data set [8] it was 2 µg/mL and 1 µg/mL; in data set [9] it was 1 µg/mL and 0.5 µg/mL. The MIC is 1 µg/mL and 0.5 µg/mL in data set [10]; 2 µg/mL (≈ 1.23 µM) with Streptococcus Group 9960; 1 µg/mL and 0.5 µg/mL in data set [11]. Moreover, the “Size of Zone of Inhibition” value in [2] is recorded as 24 mm; in data set [3] it was 20 mm; in data set [3] (grown on minimal nutrient agar), 29 mm; in data set [6], 22 mm. Further, the LD50 in the data set “Toxicity in mice” is > 300 mg/kg. Also, the ED50 amounted to 66 mg/kg × 2 in the data set on Streptococcus pyogenes (oral), 0.03 mg/kg × 2 with Streptococcus pyogenes (subcutaneous) and 0.28 mg/kg × 2 with Staphylococcus aureus.

`CCCCCCCCCC(=O)N[C@@H](Cc1ccccc1)C(=O)N[C@@H](Cc1c[nH]c2ccccc12)C(=O)N[C@@H](CC(N)=O)C(=O)N[C@@H](CC(=O)O)C(=O)N[C@@H]1C(=O)NCC(=O)N[C@@H](CCCN)C(=O)N[C@@H](CC(=O)O)C(=O)N[C@H](C)C(=O)N[C@@H](CC(=O)O)C(=O)NCC(=O)N[C@H](CO)C(=O)N[C@@H]([C@H](C)CC(=O)O)C(=O)N[C@@H](CC(=O)c2ccccc2N)C(=O)O[C@@H]1C` [Example 7, NTrp-[N-(n-Decanoyl)-L-phenylalanyl]-A-21978C Nucleus]: the MIC in data set [1] came to 0.25 µg/mL (≈ 0.141 µM); in data set [4] it was 8 µg/mL (≈ 4.53 µM); in data set [5], 1 µg/mL (≈ 0.566 µM); in [7], 0.5 µg/mL (≈ 0.283 µM); in [8], 1 µg/mL (≈ 0.566 µM); in [9] it was 0.5 µg/mL (≈ 0.283 µM). Besides, the values for the MIC (in [10]; against Streptococcus Group 9960; in data set [11]) were 0.5 µg/mL (≈ 0.283 µM), 2 µg/mL (≈ 1.13 µM) and 0.5 µg/mL (≈ 0.283 µM), respectively. In addition, the “Size of Zone of Inhibition” value in [2] worked out at 30 mm; in [3] it was 22 mm; in [3] (grown on minimal nutrient agar), 31 mm; in [6], 24 mm. Moreover, the LD50 in the data set “Toxicity in mice” turned out to be 600 mg/kg. Moreover, the ED50 with Streptococcus pyogenes (oral) was > 200 mg/kg × 2; with Streptococcus pyogenes (subcutaneous), 0.39 mg/kg × 2; with Staphylococcus aureus, 0.7 mg/kg × 2 and 0.98 mg/kg × 2.

Take `CCCCCCCCCCCCOc1ccc(C(=O)N[C@@H](Cc2c[nH]c3ccccc23)C(=O)N[C@H](CC(N)=O)C(=O)N[C@@H](CC(=O)O)C(=O)N[C@@H]2C(=O)NCC(=O)N[C@@H](CCCN)C(=O)N[C@@H](CC(=O)O)C(=O)N[C@H](C)C(=O)N[C@@H](CC(=O)O)C(=O)NCC(=O)N[C@H](CO)C(=O)N[C@@H]([C@H](C)CC(=O)O)C(=O)N[C@@H](CC(=O)c3ccccc3N)C(=O)O[C@@H]2C)cc1` [Example 8, NTrp -p-(n-dodecyloxy)benzoyl-A-21978C Nucleus]: the minimum inhibitory concentration (MIC) in data set [1] was determined as 0.25 µg/mL (≈ 0.142 µM); in [4], 2 µg/mL (≈ 1.14 µM); in data set [5], 4 µg/mL (≈ 2.28 µM); in [7], 1 µg/mL (≈ 0.57 µM); in data set [8], 2 µg/mL (≈ 1.14 µM); in data set [9], 2 µg/mL (≈ 1.14 µM). Moreover, the MIC (in [10]; with Streptococcus Group 9960) was 1 µg/mL (≈ 0.57 µM) throughout. Further, the “Size of Zone of Inhibition” value in data set [2] is listed as 20 mm; in data set [3] it was 13 mm; in [3] (grown on minimal nutrient agar), 20 mm; in data set [6], 18 mm. In “Toxicity in mice”, the LD50 is 67.5 mg/kg. Further, the figures for the ED50 with Streptococcus pyogenes (oral), with Streptococcus pyogenes (subcutaneous) and in the data set with Staphylococcus aureus were > 200 mg/kg × 2, 0.31 mg/kg × 2 and 3.35 mg/kg × 2, respectively.
